Read-outs that look alike come from different tables or passages of the source.
Columns and labels:
Conditions in all cases: mouse, in vivo
GI-101A tumors = tested on: GI-101A tumors
A549 tumors = tested on: A549 tumors; parameters: species or system nude mice
PANC-1 tumors [1] = tested on: PANC-1 tumors; parameters: species or system nude mice
PANC-1 tumors [2] = tested on: PANC-1 tumors; parameters: species or system nude mice; remark: listed apart in the source

Nc1ccn(C[C@@H](CO)OCP(=O)(O)O)c(=O)n1 [cidofovir]
Interference with tumor therapy by the virus (GI-101A tumors): did not significantly interfere with tumor therapy by the virus | Survival time of GLV-1h74 injected mice (GI-101A tumors): significantly extended the survival time

Nc1ccn([C@@H]2O[C@H](CO)[C@@H](O)C2(F)F)c(=O)n1 [Gemcitabine]
Effect on tumor growth (A549 tumors): actually increased tumor growth | Effect on tumor growth (PANC-1 tumors [1]): moderately decreased tumor growth

N.N.[Cl][Pt][Cl] [Cisplatin, cis-diamminedichloroplatinum]
Effect on tumor growth (PANC-1 tumors [2]): unable to arrest tumor growth
